Data: US3988476A, “Pharmaceutical compositions and methods of treating allergic conditions utilizing 2-nitroindane-1,3-dione derivatives as the active agent” (Beecham Group Limited, priority 1972, dated 1976)

Test system: PCA response
Assay: Rat Passive Cutaneous Anaphylaxis (PCA) test, ovalbumin challenge
Type: in vivo, Wistar rats
Settings: for % Inhibition of PCA response: 34 mg/kg
Experimental: All of the 2-nitro indane-1,3-dione prepared in the preceding Examples were submitted for biological testing. The test system was the Rat Passive Cutaneous Anaphylaxis (PCA) test described below in (ii).
Male Wister rats of 250- 300 g, were injected intraperitoneally with 0.5 ml of Bordatella pertussis vaccine (containing 4× 10^10 dead organism per ml) and subcutaneously with 0.5 ml of an emulsion of 100 mg. of ovalbumin in 2 ml of saline and 3 ml of incomplete Freunds' adjuvant. Rats were bled by cardiac puncture on day 18, the blood was pooled and separated and serum stored at -20° and thawed only once before use.
0.1 ml of each of six twofold serial dilutions of the serum in 0.9% saline were injected intradermally into separate sites on the shaved dorsal surface of 250-350 g. Wistar rats. 72 hours later the animals were challenged by i.v. injection of 0.3 ml of 1% ovalbumin mixed with 0.1 ml of a 5% solution of pontamine sky blue dye both in isotonic saline buffered with pH. 7.2 Sorenson buffer (P.B.S.). The rats were killed after 20 minutes and the diameter of the blue wheals at the antibody injection sites were measured. The starting dilution of the serum was adjusted so that there was no response, after challenge, at the site of injection of the highest dilution and a maximum response at the lowest dilution.
Amounts of the compounds were administered to rats each amount to a test group of six animals at a specified time prior to intravenous challenge with ovalbumin.
For those compounds having insoluble sodium salts, the salts were isolated by reaction of the free nitro compound with 2.5N sodium hydroxide and the filtered sodium washed free of alkali with water. The dried salts were then administered as a suspension in 1% methyl cellulose.

[1] = 25 mg/kg, 0 min between dosing and challenge, suspension of Na salt in 1% methyl cellulose
[2] = 25 mg/kg, 60 min between dosing and challenge, suspension of Na salt in 1% methyl cellulose
[3] = 100 mg/kg, 0 min between dosing and challenge, suspension of Na salt in 1% methyl cellulose
[4] = 100 mg/kg, 60 min between dosing and challenge, suspension of Na salt in 1% methyl cellulose
[5] = 25 mg/kg, 0 min between dosing and challenge, solution of Na salt
[6] = 100 mg/kg, 0 min between dosing and challenge, solution of Na salt

Row | SMILES | % INHIBITION OF PCA RESPONSE [1] | % INHIBITION OF PCA RESPONSE [2] | % INHIBITION OF PCA RESPONSE [3] | % INHIBITION OF PCA RESPONSE [4] | % INHIBITION OF PCA RESPONSE [5] | % INHIBITION OF PCA RESPONSE [6] | further results
1 | O=C1c2ccc3c(c2C(=O)C1[N+](=O)[O-])CCC3 (stereo not drawn) [4,5-cyclopentano 2-nitroindane 1,3-dione, 4,5-Cyclopentano-2-nitro indane-1,3-dione] | 5% | 34% | 26% | 28% | – | – | –
2 | Cc1cccc2c1C(=O)C([N+](=O)[O-])C2=O (stereo not drawn) [4-methyl-2-nitroindane-1,3-dione, 4-Methyl-2-nitroindane-1,3-dione] | 2% | 33% | 6% | 57% | – | – | –
3 | O=C1c2c(Cl)c(Cl)c(Cl)c(Cl)c2C(=O)C1[N+](=O)[O-] [2-Nitro-4,5,6,7-tetrachloro indane-1,3-dione] | – | – | – | – | -13% | -3% | % INHIBITION OF PCA RESPONSE (25 mg/kg, 60 min between dosing and challenge, solution of Na salt): 9%; % INHIBITION OF PCA RESPONSE (100 mg/kg, 60 min between dosing and challenge, solution of Na salt): 7%
4 | O=C1c2ccc3c(c2C(=O)C1[N+](=O)[O-])CCCC3 (stereo not drawn) [4,5-cyclohexano 2-nitroindane 1,3-dione, 4,5-Cyclohexano-2-nitroindane-1,3-dione] | – | – | – | – | – | – | % Inhibition of PCA response (0 min between dosing and challenge, suspension of Na salt in 1% methyl cellulose): 7%; % Inhibition of PCA response (60 min between dosing and challenge, suspension of Na salt in 1% methyl cellulose): 32%
5 | O=C1c2cccc(F)c2C(=O)C1[N+](=O)[O-] (stereo not drawn) [4-fluoro-2-nitroindane-1,3-dione, 4-Fluoro-2-nitro indane-1,3-dione] | – | – | – | – | 48% | 86% | % INHIBITION OF PCA RESPONSE (25 mg/kg, 30 min between dosing and challenge, solution of Na salt): 8%; % INHIBITION OF PCA RESPONSE (100 mg/kg, 30 min between dosing and challenge, solution of Na salt): 30%
